Test results published in patent US7713994B2 (Wyeth LLC, priority 2005, dated 2010).
Like-named read-outs stand apart in the source and are kept apart here.

Experiments:
MCF-7 = experiment: Cytotoxicity assay (SRB), MCF-7; format: cell-based; conditions: Homo sapiens, MCF7, 72 h, MCF-7 cells, SRB, read-out: In Vitro Cellular Activity IC50 MCF-7
Procedure, shortened: (§1)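 Cells were seeded overnight in RPMI 1640 with 5% FBS at 37 °C, 7% CO2 (12000/well BT474, 4000 HCT-116, 6000 LoVo, 6000 MCF-7), then exposed to compound dilutions for 3 days (6 days for BT474). Survival versus untreated controls was measured by TCA fixation and SRB staining at 540 nm.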

cyclin E/CDK2 enzyme = target: T1, cyclin E/CDK2 enzyme (Homo sapiens, UniProt P24941); experiment: CDK2 ELISA kinase assay (phospho-Rb ser 795 detection); format: biochemical
T1 construct: made in house; host or cells: Sf9 insect cells, recombinant baculovirus
Procedure, shortened: (§2)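 Partially purified Sf9-expressed cyclin D1/CDK4, cyclin E/CDK2 or cyclin B/CDK1 phosphorylated plate-bound GST-Rb C-terminal fragment with 200 μM ATP at 30° C for 1 h.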

HCT-116 = experiment: Cytotoxicity assay (SRB), HCT-116; format: cell-based; conditions: Homo sapiens, HCT-116, 72 h, HCT116 cells, SRB, read-out: In Vitro Cellular Activity IC50 HCT116
Procedure, shortened: as §1

LoVo = experiment: Cytotoxicity assay (SRB), LoVo; format: cell-based; conditions: Homo sapiens, LoVo, 72 h, LoVo cells, SRB, read-out: In Vitro Cellular Activity IC50 LOVO
Procedure, shortened: as §1

BT474 = experiment: Cytotoxicity assay (SRB), BT474; format: cell-based
Procedure, shortened: as §1

cyclin B/CDK1 enzyme = target: T2, cyclin B/CDK1 enzyme (Homo sapiens, UniProt P06493); experiment: CDK1 ELISA kinase assay (phospho-Rb ser 795 detection); format: biochemical
T2 construct: purchased New England BioLabs; host or cells: Sf9 insect cells, recombinant baculovirus
Procedure, shortened: as §2

cyclin D1/cdk 4 enzyme = target: T3, cyclin D1/cdk 4 enzyme (Homo sapiens, UniProt P11802); experiment: CDK4 ELISA kinase assay (phospho-Rb ser 795 detection); format: biochemical
T3 construct: made in house; host or cells: Sf9 insect cells, recombinant baculovirus
Procedure, shortened: as §2

[1] = In Vitro Enzyme Assays, read-out: CDK2 IC50
[2] = Homo sapiens, BT-474, 144 h, BT474 cells, SRB, 6 days; read-out: In Vitro Cellular Activity IC50 BT474
[3] = In Vitro Enzyme Assays, read-out: CDK1 IC50
[4] = In Vitro Enzyme Assays, 200 μM ATP, read-out: CDK4 IC50
[5] = In Vitro Enzyme Assay, cyclin E/CDK2, read-out: CDK2 IC50
[6] = Homo sapiens, BT-474, 144 h, BT474 cells, 6 days, SRB; read-out: In Vitro Cellular Activity IC50 BT474
[7] = In Vitro Enzyme Assay, cyclin B/CDK1, read-out: CDK1 IC50
[8] = In Vitro Enzyme Assay, cyclin D1/cdk 4, read-out: CDK4 IC50

T2 sequence (P06493 whole entry): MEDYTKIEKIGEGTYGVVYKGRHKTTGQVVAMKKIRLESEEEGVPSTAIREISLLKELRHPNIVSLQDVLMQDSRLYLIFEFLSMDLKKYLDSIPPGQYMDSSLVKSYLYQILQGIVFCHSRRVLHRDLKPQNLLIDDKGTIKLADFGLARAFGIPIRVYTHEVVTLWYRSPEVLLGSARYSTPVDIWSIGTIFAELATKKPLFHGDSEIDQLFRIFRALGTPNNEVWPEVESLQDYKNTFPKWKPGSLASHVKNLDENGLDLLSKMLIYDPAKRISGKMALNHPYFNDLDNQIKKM
T2 sequence (P14635 whole entry partner): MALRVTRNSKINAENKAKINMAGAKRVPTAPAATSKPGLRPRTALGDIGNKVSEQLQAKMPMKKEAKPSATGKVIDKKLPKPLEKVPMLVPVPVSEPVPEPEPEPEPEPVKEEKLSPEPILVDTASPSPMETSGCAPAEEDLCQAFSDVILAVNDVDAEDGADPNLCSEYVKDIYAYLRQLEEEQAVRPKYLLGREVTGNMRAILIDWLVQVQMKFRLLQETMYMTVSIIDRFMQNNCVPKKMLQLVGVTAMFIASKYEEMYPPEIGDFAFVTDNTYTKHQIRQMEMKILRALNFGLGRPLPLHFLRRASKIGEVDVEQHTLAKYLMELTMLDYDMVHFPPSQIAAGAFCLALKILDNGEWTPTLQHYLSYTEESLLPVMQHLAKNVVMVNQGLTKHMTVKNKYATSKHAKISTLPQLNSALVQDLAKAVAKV
T3 sequence (P11802 whole entry, species assumed): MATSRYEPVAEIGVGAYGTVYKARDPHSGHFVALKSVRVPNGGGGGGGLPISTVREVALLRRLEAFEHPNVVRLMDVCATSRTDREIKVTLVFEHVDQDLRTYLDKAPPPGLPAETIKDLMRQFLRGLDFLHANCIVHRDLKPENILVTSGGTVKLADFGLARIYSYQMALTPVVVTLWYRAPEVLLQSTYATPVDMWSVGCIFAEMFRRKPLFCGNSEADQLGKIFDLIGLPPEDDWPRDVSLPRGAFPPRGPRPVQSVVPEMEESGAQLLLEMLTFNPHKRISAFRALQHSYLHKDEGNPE
T3 sequence (P24385 whole entry partner, species assumed): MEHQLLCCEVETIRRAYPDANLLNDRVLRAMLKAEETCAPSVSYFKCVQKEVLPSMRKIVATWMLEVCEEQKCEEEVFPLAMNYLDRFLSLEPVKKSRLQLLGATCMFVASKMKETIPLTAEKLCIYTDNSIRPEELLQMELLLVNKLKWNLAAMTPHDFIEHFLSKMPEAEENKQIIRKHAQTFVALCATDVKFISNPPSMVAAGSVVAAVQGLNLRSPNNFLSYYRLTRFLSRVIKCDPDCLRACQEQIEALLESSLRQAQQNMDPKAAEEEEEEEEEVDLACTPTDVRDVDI

| IC50 (cyclin E/CDK2 enzyme; [1]) [µM] | IC50 (cyclin B/CDK1 enzyme; [3]) [µM] | IC50 (cyclin D1/cdk 4 enzyme; [4]) [nM] | IC50 (cyclin E/CDK2 enzyme; [5]) [µM] | IC50 (cyclin B/CDK1 enzyme; [7]) [µM] | IC50 (cyclin D1/cdk 4 enzyme; [8]) [nM] | SMILES | IC50 (MCF-7; three days) [µM] | IC50 (HCT-116; three days) [µM] | IC50 (LoVo; three days) [µM] | IC50 (BT474; [2]) [µM] | IC50 (MCF-7; 3 days) [µM] | IC50 (HCT-116; 3 days) [µM] | IC50 (LoVo; 3 days) [µM] | IC50 (BT474; [6]) [µM] |
| --- | --- | --- | --- | --- | --- | --- | --- | --- | --- | --- | --- | --- | --- | --- |
|  |  |  | > 50 | > 50 | 130 | O=C1NC(=O)c2ccc(-c3ccco3)cc2/C1=C/Nc1ccc(CN2CCC[C@H]2CO)cc1 [Example 466, 6-Furan-2-yl-4-{[4-(2-hydroxymethyl-pyrrolidin-1-ylmethyl)-phenylamino]-methylene}-4H-isoquinoline-1,3-dione] |  |  |  |  | 1.2 | 2.1 | 2.1 | 1.4 |
|  |  |  | > 50 | 11.8 | 9200 | CCCN(Cc1ccc(NC=C2C(=O)NC(=O)c3ccccc32)cc1)CC1CC1 [Example 575, 4-({4-[(Cyclopropylmethyl-propyl-amino)-methyl]-phenylamino}-methylene)-4H-isoquinoline-1,3-dione] |  |  |  |  | 20.3 | 16.6 | 21.8 | 28.1 |
| 30.3 | > 50 | 510 |  |  |  | O=C1NC(=O)c2ccc(I)cc2/C1=C/Nc1ccc(CN2CCC[C@@H]2CO)cc1 [Example 368, D-4-{[4-(2-Hydroxymethyl-pyrrolidin-1-ylmethyl)-phenylamino]-methylene}-6-iodo-4H-isoquinoline-1,3-dione] | 1.8 | 3.2 | 3.7 | 0.5 |  |  |  |  |
| 38.8 | > 50 | 4600 |  |  |  | COCC1CCN(c2ccc(N/C=C3\C(=O)NC(=O)c4ccc(I)cc43)cc2)CC1 [Example 435, (4Z)-6-Iodo-4-[({4-[4-(methoxymethyl)piperidin-1-yl]phenyl}amino)methylene]isoquinoline-1,3(2H,4H)-dione] |  |  |  |  | 26 | 3.2 | 5.2 | 8.5 |
|  |  |  | > 50 | > 50 | 470 | CCNCC1CCN(c2ccc(N/C=C3\C(=O)NC(=O)c4ccc(I)cc43)cc2)CC1 [Example 456, (4Z)-4-{[(4-{4-[(Ethylamino)methyl]piperidin-1-yl}phenyl)amino]methylene}-6-iodoisoquinoline-1,3(2H,4H)-dione] |  |  |  |  | 11 | 2.7 | 8.3 | 9.2 |
|  |  |  | > 50 | 30.3 | 1770 | NS(=O)(=O)c1ccc(CNC=C2C(=O)NC(=O)c3ccc(-c4cccc(F)c4)cc32)cc1 [Example 739, 4-({[6-(3-Fluoro-phenyl)-1,3-dioxo-2,3-dihydro-1H-isoquinolin-4-ylidenemethyl]-amino}-methyl)-benzenesulfonamide] |  |  |  |  | 17.1 | 26.4 | > 50 | 32.8 |

The remaining lines, values behind:

| SMILES | IC50 (cyclin E/CDK2 enzyme; [1]) [µM] | IC50 (cyclin B/CDK1 enzyme; [3]) [µM] | IC50 (cyclin D1/cdk 4 enzyme; [4]) [nM] | IC50 (cyclin E/CDK2 enzyme; [5]) [µM] | IC50 (cyclin B/CDK1 enzyme; [7]) [µM] | IC50 (cyclin D1/cdk 4 enzyme; [8]) [nM] | IC50 (MCF-7; three days) [µM] | IC50 (HCT-116; three days) [µM] | IC50 (LoVo; three days) [µM] | IC50 (BT474; [2]) [µM] | IC50 (MCF-7; 3 days) [µM] | IC50 (HCT-116; 3 days) [µM] | IC50 (LoVo; 3 days) [µM] | IC50 (BT474; [6]) [µM] |
| --- | --- | --- | --- | --- | --- | --- | --- | --- | --- | --- | --- | --- | --- | --- |
| O=C(/C=C\Cl)Nc1ccc(CN/C=C2\C(=O)NC(=O)c3ccc(I)cc32)cc1O [Example 337, (2Z)-3-Chloro-N-[2-hydroxy-4-({[(Z)-(6-iodo-1,3-dioxo-2,3-dihydroisoquinolin-4(1H)-ylidene)methyl]amino}methyl)phenyl]acrylamide] | 1 | 3.1 | 20 |  |  |  | 1.1 | 0.67 | 0.91 | 0.73 |  |  |  |  |
| C/C=C/C(=O)Nc1ccc2c(c1)/C(=C/Nc1ccc(N3CCN(C)CC3)cc1)C(=O)NC2=O [Example 384, (2E)-N-[(4Z)-4-({[4-(4-Methylpiperazin-1-yl)phenyl]amino}methylene)-1,3-dioxo-1,2,3,4-tetrahydroisoquinolin-6-yl]but-2-enamide] | > 50 | 38.8 | > 50000 |  |  |  | 24 | 12 | 19 | 26 |  |  |  |  |
| CN(C)CCCN/C=C1\C(=O)NC(=O)c2ccc(Br)cc21 [Example 306, (Z)-6-Bromo-4-((3-(dimethylamino)propylamino)methylene)isoquinoline-1,3(2H,4H)-dione] | > 50 | > 50 | 6700 |  |  |  | 25 | 26 | 13 | 37 |  |  |  |  |
| O=C1NC(=O)c2ccc(C=Cn3ccnc3)cc2C1=CNCc1ccc(O)c(O)c1 [Example 667, 4-[(3,4-Dihydroxy-benzylamino)-methylene]-6-(2-imidazol-1-yl-vinyl)-4H-isoquinoline-1,3-dione] |  |  |  | 4 | > 50 | 10 |  |  |  |  | 12.4 | > 50 | 29.4 | > 50 |
| C=C(CN(C)C)C(=O)Nc1ccc(CN/C=C2\C(=O)NC(=O)c3ccc(I)cc32)cc1O [Example 338, 2-[(Dimethylamino)methyl]-N-[2-hydroxy-4-({[(Z)-(6-iodo-1,3-dioxo-2,3-dihydroisoquinolin-4(1H)-ylidene)methyl]amino}methyl)phenyl]acrylamide] | 2.8 | 13.8 | 100 |  |  |  | 0.94 | 0.95 | 0.87 | 2 |  |  |  |  |
| CN1CCN(c2ccc(N/C=C3\C(=O)NC(=O)c4ccc(I)cc43)c(O)n2)CC1 [Example 447, (4Z)-4-({[2-Hydroxy-6-(4-methylpiperazin-1-yl)pyridin-3-yl]amino}methylene)-6-iodoisoquinoline-1,3(2H,4H)-dione] | 17.6 | 12.9 | 7500 |  |  |  |  |  |  |  | 3.6 | 2 | 3.5 | 3 |
| O=C1NC(=O)c2ccc(-c3ccccc3F)cc2C1=CNCc1ccc(O)c(O)c1 [Example 769, 4-[(3,4-Dihydroxy-benzylamino)-methylene]-6-(2-fluoro-phenyl)-4H-isoquinoline-3,3-dione] |  |  |  | 3.9 | 14.7 | 30 |  |  |  |  | 17.9 | 13.4 | 15.5 | 17.9 |
| COc1ccc(C(C)N/C=C2\C(=O)NC(=O)c3ccc(Br)cc32)cc1O (stereo not drawn) [Example 189, (4Z)-6-Bromo-4-({[1-(3-hydroxy-4-methoxyphenyl)ethyl]amino}methylene)isoquinoline-1,3(2H,4H)-dione] | > 50 | > 50 | 370 |  |  |  | 9.9 | 7.2 | 6.4 | 5.8 |  |  |  |  |
| O=C1NC(=O)c2ccc(Br)cc2/C1=C/NCCCN1CCCC1=O [Example 311, (Z)-6-Bromo-4-((3-(2-oxopyrrolidin-1-yl)propylamino)methylene)isoquinoline-1,3(2H,4H)-dione] | > 50 | > 50 | 8600 |  |  |  | 13 | 29 | 19 | 38 |  |  |  |  |
| CC(=O)Nc1ccc(CN/C=C2\C(=O)NC(=O)c3ccc(-c4ccsc4)cc32)cc1O [Example 145, N-[4-({[(Z)-(1,3-Dioxo-6-thien-3-yl-2,3-dihydroisoquinolin-4(1H)-′ylidene)methyl]amino}methyl)-2-hydroxyphenyl]acetamide] | 6.1 | 26.3 | 4 |  |  |  | > 50 | 32.5 | 16 | > 50 |  |  |  |  |
| Nc1cccc(-c2ccc3c(c2)C(=CNCc2ccc(O)c(O)c2)C(=O)NC3=O)c1 [Example 821, 6-(3-Amino-phenyl)-4-[(3,4-dihydroxy-benzylamino)-methylene]-4H-isoquinoline-1,3-dione] |  |  |  | 20.7 | 24.2 | 140 |  |  |  |  | 27.2 | 35.9 | 50.1 | 25.1 |
| COc1ccc(CN(C)/C=C2\C(=O)NC(=O)c3ccc(Br)cc32)cc1O [Example 163, (4Z)-6-Bromo-4-{[(3-hydroxy-4-methoxybenzyl)(methyl)amino]methylene}isoquinoline-1,3(2H,4H)-dione] | 44.4 | > 50 | > 50000 |  |  |  | 38 | 38 | 34 | 38 |  |  |  |  |
